Data taken from a melting point compilation (Tetko et al.; mined from patent text by program, amines drawn as free bases though some values may be those of a salt).

Compound	melting point [°C]
CC(C)(C)c1ccc(P2Oc3ccccc3-c3ccccc32)cc1 (stereo not given)	90 to 92
CCCCCS(=O)(=O)NC(=O)CCc1cc(OC(C)C)nn1Cc1ccc(Cl)cc1Cl	126 to 129
CN1CCc2c(c3cc(F)ccc3n2CCc2nc(-c3ccccc3)cs2)C1	136 to 137
CCOC(=O)CCCC1Sc2ccccc2NC1=O (stereo not given)	78 to 79
CCOC(=O)c1cn(C2CC2)c2cc(C3CCN(C(C)=O)CC3)c(F)cc2c1=O	195 to 201
COCC1CN(c2ccc(C3CCC(OC(=O)c4ccccc4C4=NCCO4)CC3)cc2)C(=O)O1 (racemic)	182 to 184
CN(C)CC/C=C1/c2ccccc2COc2ccc(C(=O)O)cc21	121 to 123
CC(O)c1ccc2occ(C#N)c(=O)c2c1 (stereo not given)	147 to 148
Cc1ncccc1O[C@@H]1COc2ccc(OCc3ccccc3)cc2[C@@H]1O (relative stereo)	133 to 134
O=c1[nH]c2ccc(C3CCNCC3)cc2[nH]1	214 to 215
O=C1CCC(c2ccc(-n3ccnc3)nc2)=NN1	276 to 278
CCc1noc(-c2cn(-c3ccc(OCc4ccccc4)cc3)cn2)n1	171 to 172
CCOC(=O)CC[C@H](NC(=O)c1ccc(CCCCc2c(N)nc(N)nc2O)cc1)C(=O)OCC	75 to 76
CCc1cccc2oc(C(=O)Nc3ccc(-c4ccc(S(=O)(=O)NC(C(=O)O)C(C)C)cc4)cc3)c(C)c12 (stereo not given)	239 to 241
CCCCCCCCOc1ccc(Cl)c2c(=O)c3ccccc3sc12	86 to 87.5
Clc1ccc(-c2cc(CCC3CCCNC3)c3ccccc3n2)cc1 (stereo not given)	155
CCCNc1onc2c1c(=O)n(C)c(=O)n2C	164 to 166
Oc1ccccc1Oc1ccc(-c2ccsc2)cc1O	114 to 116
COC(=O)c1cnccc1NC(=O)C(C)CS (stereo not given)	54 to 56
NC(=O)Nc1ccc(-c2nnc(CSCCOc3ccccc3)o2)cc1	> 220
O=C(c1ccccc1)c1cc2ccccc2o1	88 to 90
COc1ccc(C2=NN(CCCCCCCCBr)C(=O)[C@H]3CCCC[C@@H]23)cc1OC (relative stereo)	58 to 60

Continued, values first:

melting point [°C]	Compound
94 to 95	Cc1oc2c(C)c(C)c(NCc3ccccc3)c(C)c2c1-c1ccc(C(C)C)cc1
70	CCOC(=O)CCc1nc(-c2cccc(OC)c2)nc2ccccc12
77 to 78	COC(=O)c1ccc(S(C)(=O)=O)c(CBr)c1Cl
87 to 89	BrCc1nc2cc(OCc3ccccc3)ccc2s1
168 to 170	CC(=O)Nc1ccc(C(=O)C2CCN(CC(=O)c3ccc(F)cc3)CC2)cc1
95 to 100	CSC(=Nc1c(C(C)C)cc(Oc2ccc(Cl)cc2)nc1C(C)C)NC(C)(C)C
233 to 235	CCN1C(C(=O)Nc2cncc(Cl)n2)=C(O)c2ccccc2S1(=O)=O
175 to 177	CCOC(=O)c1c[nH]c2c(OCOC)ccc(OC)c2c1=O
247 to 249	O=C(O)Cn1c(-c2cccc(Br)c2)nc2cccnc21
116 to 118	COc1cccc(F)c1-n1nnc2cc(C(C)(C)C)c(OCc3ncnn3C)nc21
120 to 122	Clc1nc2ccccc2c2occc12
227 to 228	Nc1nc2c(c3c1ncn3Cc1cc(-c3ccc(F)cc3)no1)NCCC2
255 to 256	CCn1nc(-c2ccccc2)c(C(C)=O)c(Nc2cccc(C(=O)O)c2Cl)c1=O
226 to 229	CC1(C)Oc2ccc(C#N)cc2[C@@H](N2CCN(C(=O)c3ccco3)CC2=O)[C@@H]1O (relative stereo)
86	CC(C)NCC(O)COc1ccc(OCCSCC2CC2)cc1 (stereo not given)
169 to 170	CNc1ccccc1C(=O)n1nc(O)c2cc(N)ccc21
112 to 113	CS(=O)CCNC(=O)c1cccc(-c2ccc3c(c2)C(c2ccc(Cl)cc2Cl)CC3)c1 (stereo not given)
89 to 90	Cc1oc(-c2ccccc2)nc1COc1ccc(CCCO)cn1
